According to ChEMBL document CHEMBL5154730, “A covalent strategy to target intrinsically disordered proteins: Discovery of novel tau aggregation inhibitors” (Eur J Med Chem, 2022):
Calls of active or inactive are those of the source. The calls are words filed in the database; no cut-off is given here.

Columns and labels:
Homo sapiens = organism: Homo sapiens; assay: Inhibition of hexahistidine-tagged tau K18 domain C291S/C322S mutant (unknown origin) expressed in Escherichia coli BL21 (DE3) assessed as inhibition of heparin-induced aggregation by measuring protein aggregation rate at 10 uM by thioflavin-T fluorescence assay relative to control; set-up: scale not given: the % may be the effect or the level left
[1] = biological target: Microtubule-associated protein tau (Homo sapiens) (UniProt P10636); assay: Inhibition of tau K18 domain (unknown origin) assessed as inhibition of heparin-induced aggregation by measuring protein aggregation rate at 10 uM by thioflavin-T fluorescence assay relative to control; set-up: scale not given: the % may be the effect or the level left
[2] = biological target: Microtubule-associated protein tau (Homo sapiens) (UniProt P10636); assay: Inhibition of tau K18 domain (unknown origin) assessed as inhibition of heparin-induced aggregation by measuring increase in brightness by transmission electron microscopy
[3] = biological target: Microtubule-associated protein tau (Homo sapiens) (UniProt P10636); assay: Binding affinity to tau K18 domain (unknown origin) assessed as cysteine labelling efficiency by measuring free thiol ratio at 200 uM incubated for 24 hrs by Ellmans method relative to control
[4] = biological target: Microtubule-associated protein tau (Homo sapiens) (UniProt P10636); assay: Covalent binding affinity to tau K18 domain monomer (unknown origin) assessed as labelling at Cys291 residue incubated for 24 hrs and measured following trypsin digestion by LC-MS/MS analysis
[5] = biological target: Microtubule-associated protein tau (Homo sapiens) (UniProt P10636); assay: Inhibition of tau K18 domain (unknown origin) assessed as inhibition of heparin-induced aggregation by measuring protein aggregation rate at 250 uM by thioflavin-T fluorescence assay relative to control; set-up: scale not given: the % may be the effect or the level left
[6] = biological target: Microtubule-associated protein tau (Homo sapiens) (UniProt P10636); assay: Inhibition of tau K18 domain (unknown origin) assessed as inhibition of heparin-induced aggregation by measuring reduction in intensity at 215 nm with random coil conformation by CD spectrometry
[7] = biological target: Microtubule-associated protein tau (Homo sapiens) (UniProt P10636); assay: Inhibition of tau K18 domain (unknown origin) assessed as inhibition of heparin-induced aggregation by measuring protein aggregation rate at 50 uM by thioflavin-T fluorescence assay relative to control; set-up: scale not given: the % may be the effect or the level left
[8] = biological target: Microtubule-associated protein tau (Homo sapiens) (UniProt P10636); assay: Inhibition of tau K18 domain (unknown origin) assessed as inhibition of heparin-induced aggregation by measuring protein aggregation rate at 500 uM by thioflavin-T fluorescence assay relative to control; set-up: scale not given: the % may be the effect or the level left
[9] = biological target: Microtubule-associated protein tau (Homo sapiens) (UniProt P10636); assay: Inhibition of tau K18 domain (unknown origin) assessed as inhibition of heparin-induced aggregation by measuring protein aggregation rate at 1000 uM by thioflavin-T fluorescence assay relative to control; set-up: scale not given: the % may be the effect or the level left
[10] = biological target: Microtubule-associated protein tau (Homo sapiens) (UniProt P10636); assay: Inhibition of tau K18 domain (unknown origin) assessed as inhibition of heparin-induced aggregation by measuring protein aggregation rate at 100 uM by thioflavin-T fluorescence assay relative to control; set-up: scale not given: the % may be the effect or the level left
[11] = biological target: Microtubule-associated protein tau (Homo sapiens) (UniProt P10636); assay: Covalent binding affinity to tau K18 domain monomer (unknown origin) assessed as labelling at Cys322 residue incubated for 24 hrs and measured following trypsin digestion by LC-MS/MS analysis
[12] = biological target: Microtubule-associated protein tau (Homo sapiens) (UniProt P10636); assay: Binding affinity to tau K18 domain (unknown origin) assessed as cysteine labelling at 250 uM incubated for 18 hrs by 15N-HSQC NMR spectroscopy

Microtubule-associated protein tau (Homo sapiens), sequence (P10636 whole entry, the tested form may be a part): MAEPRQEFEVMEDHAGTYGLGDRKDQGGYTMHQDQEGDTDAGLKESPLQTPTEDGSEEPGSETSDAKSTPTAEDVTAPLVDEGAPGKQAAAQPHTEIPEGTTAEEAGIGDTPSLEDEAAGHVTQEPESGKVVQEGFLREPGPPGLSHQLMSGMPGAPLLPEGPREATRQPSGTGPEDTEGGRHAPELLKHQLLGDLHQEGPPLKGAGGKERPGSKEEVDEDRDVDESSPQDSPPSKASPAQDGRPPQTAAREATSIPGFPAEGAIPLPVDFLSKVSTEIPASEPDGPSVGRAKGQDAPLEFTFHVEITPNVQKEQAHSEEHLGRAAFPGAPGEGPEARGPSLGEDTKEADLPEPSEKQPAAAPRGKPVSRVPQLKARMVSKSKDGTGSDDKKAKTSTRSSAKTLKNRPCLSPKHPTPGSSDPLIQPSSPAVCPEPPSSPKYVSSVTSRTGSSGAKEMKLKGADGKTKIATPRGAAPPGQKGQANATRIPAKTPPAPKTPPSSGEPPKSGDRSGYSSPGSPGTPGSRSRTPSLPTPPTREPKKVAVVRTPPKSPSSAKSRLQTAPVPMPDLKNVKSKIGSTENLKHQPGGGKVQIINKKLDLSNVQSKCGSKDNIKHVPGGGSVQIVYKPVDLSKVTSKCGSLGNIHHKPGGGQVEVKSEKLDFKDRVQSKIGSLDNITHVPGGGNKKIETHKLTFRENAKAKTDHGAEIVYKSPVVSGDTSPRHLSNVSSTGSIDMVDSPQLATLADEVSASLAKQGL

Activity (Homo sapiens) | Activity [1] | Activity [3] | Compound | further results
29.4% | 38.1% | – | H-DVWMINKKRK-OH | –
57.9% | 15.7% | 39.7% | C=CS(=O)(=O)Nc1ccc(C(=O)NCCCCCC(=O)N[C@@H](CCC(=O)O)C(=O)N[C@@H](C)C(=O)N[C@@H](C)C(=O)N[C@@H](CCC(=O)O)C(=O)N[C@@H](C)C(=O)N[C@@H](CCCCN)C(=O)N[C@@H](C)C(=O)N[C@@H](C)C(=O)NC(CCCCn2cc(CNC(=O)[C@H](Cc3c[nH]c4ccccc34)NC3C(=O)c4ccccc4C(=O)C3Cl)nn2)C(=O)O)cc1 (stereo partly drawn) | inhibition [2]: Active; Activity [4]: Active
– | 110% | – | C=CS(N)(=O)=O | –
– | 102% | – | C=CS(=O)(=O)Cc1cccc2cccnc12 | –
83.4% | 29.2% | 44.7% | C=CS(=O)(=O)Cc1ccc(-c2ccc(/C=C3/SC(=S)N(CCC(=O)OCC)C3=O)o2)cc1 | Activity [5]: 50.8%; inhibition [6]: Active; Activity [7]: 75.4%; Activity [8]: 40.1%; Activity [9]: 29.2%; Activity [10]: 60.3%
69.4% | 21.3% | 34.4% | C=CS(=O)(=O)Cc1c2ccccc2cc2ccccc12 | Activity [11]: Active; Activity [5]: 54.1%; Activity [7]: 78.2%; Activity [4]: Active; Activity [8]: 43.9%; Activity [9]: 21.3%; Activity [10]: 72%
– | 111% | – | C=CS(=O)(=O)Cc1ccc2ccccc2c1 | –
100% | 39.7% | 56.7% | C=CS(=O)(=O)NCCNC(=O)O[C@H]1CC[C@@]2(C)C(=CC[C@H]3[C@@H]4CC[C@H]([C@H](C)CCCC(C)C)[C@@]4(C)CC[C@@H]32)C1 | inhibition [2]: Active
– | 97.7% | – | C=CS(=O)(=O)c1ccccc1 | –
– | 97.3% | – | C=CS(=O)(=O)Cc1ccc(C(=O)c2ccccc2)cc1 | –
– | 96.9% | – | C=CS(=O)(=O)NCc1cc(C(F)(F)F)cc(C(F)(F)F)c1 | –
– | 107% | – | C=CS(=O)(=O)c1cc(C(F)(F)F)cc(C(F)(F)F)c1 | –
86.7% | 39.8% | 66.3% | C=CS(=O)(=O)Cc1cc(C(F)(F)F)cc(C(F)(F)F)c1 | Activity [11]: Active; Activity [5]: 62.9%; Activity [12]: Active; Activity [7]: 94.4%; Activity [4]: Active; Activity [8]: 43.1%; Activity [9]: 39.8%; Activity [10]: 75.3%
